The values that follow are results of earlier work, collected in patent US11737956B2, “Composition for intracanal medication” (MARUCHI, priority 2016, dated 2023).

The conditions of this series: very small amount of dissolution in water.

For the compound `[Ca+2].[OH-].[OH-]` [calcium hydroxide], the pH of water is given as 12.4.
